One test has as its target PDI (Homo sapiens, UniProt P07237). The conditions noted are these: insulin reduction assay, reported in the literature; cited from earlier work.
Test [1] concerns the target T1, Protein disulfide isomerase (PDI) from bovine liver (Bos taurus, UniProt P05307).
T1 construct: Protein disulfide isomerase (PDI) from bovine liver (Catalog number P3818); purchased Sigma P3818; host or cells: bovine liver (tissue-derived enzyme)
T1 sequence (P05307 21-510): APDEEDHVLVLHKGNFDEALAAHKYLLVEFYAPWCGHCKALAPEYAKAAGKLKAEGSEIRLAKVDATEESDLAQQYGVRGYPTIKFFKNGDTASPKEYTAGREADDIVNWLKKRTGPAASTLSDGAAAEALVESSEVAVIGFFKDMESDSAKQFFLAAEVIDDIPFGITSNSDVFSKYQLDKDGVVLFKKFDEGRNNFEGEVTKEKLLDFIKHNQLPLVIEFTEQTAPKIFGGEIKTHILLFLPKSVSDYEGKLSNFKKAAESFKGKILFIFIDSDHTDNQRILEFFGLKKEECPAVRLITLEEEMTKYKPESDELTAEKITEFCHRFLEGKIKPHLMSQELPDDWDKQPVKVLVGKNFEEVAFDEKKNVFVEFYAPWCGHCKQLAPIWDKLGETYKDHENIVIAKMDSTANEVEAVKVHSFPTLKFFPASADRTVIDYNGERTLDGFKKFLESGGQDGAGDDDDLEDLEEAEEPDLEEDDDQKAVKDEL
Kind of test: High-throughput turbidometric assay of PDI-catalyzed insulin reduction (OD650, H2O2 stop). It is filed as biochemical. Here is the method: Protein disulfide isomerase (PDI) from bovine liver (Catalog number P3818), insulin from bovine pancreas (Catalog number 14011), dithiothreitol (Catalog number D9779), H2O2 (Catalog number H6520) and bacitracin (Catalog number B0125) were purchased from Sigma. A stock solution of 1.6 mM insulin was prepared by dissolving insulin in 0.1 N HCl. Clear polystyrene 384-well assay plates were obtained from Greiner (Catalog number 781101). All reagents used in this study were of analytical grade.
The assay utilized the method according to Bonfils (1998) Eur J Biochem 254:420–427, but was miniaturized in 384-well plates. The assay buffer consisted of 100 mM potassium phosphate and 0.2 mM EDTA, pH 7.0. In a standard room temperature assay, insulin from a 1.6 mM stock solution and PDI from a 5 mg/mL stock were added to final concentrations of 0.16 mM and 33 ug/mL in assay buffer, respectively. Aliquots of the reaction mixture were then added at 30 μL per well to 384-well assay plates. To initiate the reaction, 5 μL of 7 mM dithiothreitol (final concentration 1 mM) was added and quickly mixed. The enzyme reaction was monitored at 650 nm on a SpectraMax Plus plate reader (Molecular Devices, Sunnyvale, Calif.).
For high-throughput screening, a Biomek 2000 liquid handling system (Beckman-Coulter, Palo Alto, Calif.) was used to add 5 μL of 1 M positive control H2O2 to each well in column 24 of the assay plates. Then a Biomek FX384 pipettor (Beckman-Coulter, Palo Alto, Calif.) was programmed to automate the subsequent additions. The pipettor aspirated 29 μL of the enzyme/substrate mixture, applied a 0.5-μL air gap, dipped into DMSO to wash the pipette tip exterior, pipetted 1 μL of 300 μM compound, and then dispensed the entire volume into the assay plate. After the dispense step, the compound was mixed well with the enzyme and substrate. Following a 10 min pre-incubation, 5 μL of 7 mM dithiothreitol was dispensed into the reaction wells. This was followed immediately by a mixing step, in which 20 μL of the mixture was aspirated and dispensed twice in the well. The reaction was allowed to proceed for 30 min and stopped by adding 5 μL of 1 M H2O2 (final concentration 125 mM) to each well. The optical density of each well was measured at 650 nm on the SpectraMax Plus plate reader.
For data analysis, the results are presented as mean±standard deviation. Dose-response curves were fitted by least square regression using Prism (version 3.03). The Z′ factor was calculated according to Zhang et al. (1999) J Biomol Screen 4:67–73.

The IC50 is the concentration needed to halve the response being measured. The Hill slope is a measure of the steepness of the concentration-response curve.

The structures appear in SMILES notation. Values joined by “and” are separate entries in the source; they are usually repeats but may differ in a detail not shown here. Identical values can stand only once. Where a SMILES comes first, the peptide text is derived from it.

Chain of PDI (P07237 18-508, species assumed): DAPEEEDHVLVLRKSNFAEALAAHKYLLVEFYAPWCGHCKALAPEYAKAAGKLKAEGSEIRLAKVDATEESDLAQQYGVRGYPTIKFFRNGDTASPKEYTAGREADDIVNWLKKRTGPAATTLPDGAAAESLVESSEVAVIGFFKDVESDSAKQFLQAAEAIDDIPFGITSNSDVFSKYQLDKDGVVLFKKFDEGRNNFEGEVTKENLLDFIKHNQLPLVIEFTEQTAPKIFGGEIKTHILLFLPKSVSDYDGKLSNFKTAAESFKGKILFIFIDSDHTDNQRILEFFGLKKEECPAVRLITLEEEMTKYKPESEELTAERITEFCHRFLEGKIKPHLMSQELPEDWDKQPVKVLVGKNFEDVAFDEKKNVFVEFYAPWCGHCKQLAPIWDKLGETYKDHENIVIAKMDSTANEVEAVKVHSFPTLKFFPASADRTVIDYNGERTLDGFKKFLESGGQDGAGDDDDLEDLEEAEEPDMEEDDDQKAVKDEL

As to `CC[C@H](C)[C@H](N)C1=N[C@H](C(=O)N[C@@H](CC(C)C)C(=O)N[C@H](CCC(=O)O)C(=O)N[C@H](C(=O)N[C@H]2CCCCNC(=O)[C@H](CC(N)=O)NC(=O)[C@@H](CC(=O)O)NC(=O)[C@H](Cc3cnc[nH]3)NC(=O)[C@@H](Cc3ccccc3)NC(=O)[C@H]([C@@H](C)CC)NC(=O)[C@@H](CCCN)NC2=O)[C@@H](C)CC)CS1` [bacitracin] (HELM PEPTIDE1{[CC[C@H](C)[C@H](N)C1=N[C@H](C(=O)[*:2])CS1].L.[dE].I.K.[NCCC[C@@H](N[*:1])C(=O)[*:2]].I.[dF].H.[dD].N}$PEPTIDE1,PEPTIDE1,5:R3-11:R2$$$V2.0), the IC50 on PDI was around 200 µM; in test [1] (inhibitor incubated with enzyme and insulin 10 minutes prior to initiation with dithiothreitol, dose-response) it was 152 ± 25 µM. Moreover, the “behaviour as stop reagent” value in test [1] (2 mM bacitracin added 30 min after initiation of the reaction) was “slow inhibitor”. The “inhibition of the enzyme reaction” value in test [1] (bacitracin incubated with the enzyme prior to the addition of dithiothreitol) is “dramatically inhibited the enzyme reaction”. Further, the Hill slope in test [1] (dose-response curve, non-linear regression) is 1.2±0.2 and 1.2.

Source of the values: US6977142B2, “High-throughput turbidometric assay for screening inhibitors of protein disulfide isomerase activity” (AGY Therapeutics, Inc., priority 2003, dated 2005).
